Reference: ChEMBL document CHEMBL5726007, “Therapeutic compounds and uses thereof” (2018)

Target: T1, Bromodomain-containing protein 9 (Homo sapiens, UniProt Q9H8M2)
T1 sequence (Q9H8M2 whole entry): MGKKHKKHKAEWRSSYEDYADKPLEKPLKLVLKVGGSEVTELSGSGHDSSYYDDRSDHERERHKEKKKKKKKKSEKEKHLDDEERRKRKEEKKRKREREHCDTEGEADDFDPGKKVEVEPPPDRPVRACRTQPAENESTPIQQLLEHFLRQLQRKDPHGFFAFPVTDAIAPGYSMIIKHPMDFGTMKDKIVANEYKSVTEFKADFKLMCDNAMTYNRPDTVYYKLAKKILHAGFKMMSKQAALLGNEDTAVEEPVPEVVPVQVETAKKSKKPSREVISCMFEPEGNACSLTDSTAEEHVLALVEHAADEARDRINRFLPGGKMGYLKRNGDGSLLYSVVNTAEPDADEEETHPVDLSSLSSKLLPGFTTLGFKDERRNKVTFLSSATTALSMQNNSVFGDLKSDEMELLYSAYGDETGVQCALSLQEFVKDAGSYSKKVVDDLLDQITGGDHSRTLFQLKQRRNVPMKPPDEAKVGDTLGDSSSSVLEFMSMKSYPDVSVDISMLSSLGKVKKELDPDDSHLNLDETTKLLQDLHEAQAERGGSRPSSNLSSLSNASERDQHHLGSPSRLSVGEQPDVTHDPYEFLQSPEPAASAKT
Experiment: After 20 minutes incubation at room temperature AlphaLisa Streptavidin Acceptor Beads (Perkin-AL125C) and AlphaLisa Nickel donor beads (Perkin AS 10 ID) were added to a final concentration of 15 ug/mL each.

## CC(C)n1cc(-c2ccc(C(C)(C)O)cc2)c2cc[nH]c2c1=O
  IC50: 4.1 µM
